Results as given in patent US20190321302A1, “PRESERVATION OF MICROORGANISMS” (Yun NV, priority 2016, published 2019).
Like-named read-outs stand apart in the source and are kept apart here.

Experiments:
probiotic capsules = details: for % survival: 3 months cold storage, relative to Blanc; for CFU/g: capsules 15% in basic cream pH 4.5, 3 months cold storage
Protocol: A basic cream without preservatives/perfume was used as basis for further tests. The preservative tested was Sorbic acid (2,4 hexadienoic acid), an organic acid with pKa 4.76 at 25° C. at different concentrations. The pH of the cream for all the tested conditions was adjusted to 4.5 using HCl/NaOH.
The probiotic capsules are suspended 15% (m/) in the cream base with the different preservative concentrations. To simulate release of the probiotics in vivo, the use of a Citric acid buffer was used in vitro. The citric acid will dissolve the membrane of the capsule and hereby release the probiotics inside the capsule. CA buffer was made by dissolving 31.2 g Na2HPo4 & 1.25 g Citric acid in 971.54 g Sterile water. The Final solution is isotonic with a pH of 7.4±0.2.
The sample creams are sampled in duplo after which it is dissolved in CA-buffer. A further 1/10 dilution series is made and 0.1 ml is spread on MRS agar plates using the ‘copacabana spread plating method’ with 5 glass beads diameter 4 mm. Plating happens in duplo and results (after 3 days incubation 37° C.) are calculated as CFU/ gram cream. Storage happens at 4° C. & 25° C. Sampling happens after 1-2-3 months.

[1] = test system: E. coli (DSM 1576), Ps. Aeruginosa (DSM 1128), C. albicans (DSM 1386), St. aureus (DSM 799), As. Niger (DSM 1988); details: base cream without capsules, pH 4.5, 4 weeks, concentrations as low as 0.1%
Protocol: This was proven by conducting a challenge test on the cream (without the probiotic capsules) with the different preservative concentrations, according to the European Pharmacopeia (5.1.3).
Challenge tests are used to determine the efficacy of the antimicrobial conservation system for dermatological products. […] Sorbic acid was tested in concentrations : 0.5%-0.3%-0.1%-0% (Control).
The challenged organisms were E. coli (DSM 1576), Ps. Aeruginosa (DSM 1128), C. albicans (DSM 1386), St. aureus (DSM 799), As. Niger (DSM 1988).
Addition of the challenged organisms (in 100 gram product) happens at 10^6 CFU/ML. Sampling happens after 6 hours, 24 hours, 7-14 & 28 days. A challenge test is successful if at least a 3 log reduction is visible after 7 days for the bacteria and a 2 log reduction for the yeasts/molds after 14 days—3 log after 4 weeks. Results shown are after 4 weeks of sampling.

[2] = at 25° C.; cited from earlier work

CC=CC=CC(=O)O [Sorbic acid, 2,4 hexadienoic acid]
% survival (probiotic capsules; sorbic acid 0.03 %): 68% | CFU/g (probiotic capsules; sorbic acid 0.03 %): 6.E+07 CFU/g | % survival (probiotic capsules; sorbic acid 0.1 %): 79% | CFU/g (probiotic capsules; sorbic acid 0.1 %): 7.E+07 CFU/g | % survival (probiotic capsules; sorbic acid 0.3 %): 76% | CFU/g (probiotic capsules; sorbic acid 0.3 %): 7.E+07 CFU/g | preservative effect in challenge test [1]: good preservative effect | pKa [2]: 4.76
